Earlier results on two molecules are cited in patent publication US7553863B2, “Ultrapure 4-methylpyrazole” (Paladin Labs (Barbados) Inc., priority 2005, dated 2009).

For data set [1] the following is noted: H. Kohno et al., Cancer Sci. 2005.
For a further data set, the system named is alcohol dehydrogenase. As to conditions: relative to 4-methylpyrazole; T. Li et al., Acta Chem. Scan. 1969.
For data set [2] the following is noted: Eisses, 1995.
Data set [3] has as its system brain levels of noradrenaline. The conditions noted are these: in contrast to 4-methylpyrazole; E. MacDonald, Acta Pharmacol. et Toxicol. 1976.

For `NN` [Hydrazine], the mutagenicity and carcinogenicity entry in data set [1] is “known mutagens and carcinogens”.

As for `c1cn[nH]c1` [Pyrazole], the “fold less potency against alcohol dehydrogenase” value with alcohol dehydrogenase is 10 fold. For the same molecule, in data set [2], the teratogenicity result is reported as “known teratogen”. Moreover, in data set [3], the “effect on brain levels of noradrenaline” value is reported as “detrimental effect”.
